These results are taken from PMC7504735, “Enhanced Antigiardial Effect of Omeprazole Analog Benzimidazole Compounds” (Molecules, 2020).

Experiment [1] has as its system Giardia lamblia trophozoites. In words: Antigiardial activity on G. lamblia trophozoites, trypan blue dye exclusion. The class given is cell-based. To be noted: Giardia duodenalis, 48 h at 37 °C, pH 7.4, trypan blue. The method, then: Giardia lamblia WB strain (ATCC number 30957) was grown in a modified TYI-S-33 medium supplemented with 10% fetal bovine serum. The parasite was cultivated in 15 mL screw-capped borosilicate glass tubes containing 13 mL medium. The tubes were incubated on a 15° horizontal slant at 37 °C. Giardia was harvested from confluent culture by chilling the tubes on ice for 5‒10 min to detach cells, followed by centrifugation at 800× g for 5 min.
The antigiardial activity of the prepared compounds was tested as described. One milligram of a test compound was dissolved in 10 L of DMSO and topped up with 1 mL growth medium. The solution was filter-sterilized using 0.22-m syringe filters and the appropriate volumes of the solutions were taken to prepare the concentration of each compound in 1.5 mL microtubes. For each preparation, concentrations of 500, 250, 125, 62, and 31 µg/mL were prepared in a final volume of 1.5 mL. Each tube was inoculated with 5 × 10^4 trophozoites of G. lamblia and then incubated for 48 h at 37 °C. After incubation, 75 L of the treated trophozoites were subcultured individually for another 48 h in a fresh medium free of compounds. At the end of this period, the viable trophozoites were counted. Each compound was assayed in duplicate in three independent experiments. In each assay, appropriate controls were also tested, including a sample without compound and another with DMSO.
The parasites in each tube were counted using a standard hemocytometer at 10× objective. In each count, trypan blue was employed to distinguish live parasites from dead ones. To permit detachment of Giardia, the tubes were placed on ice for 10 min and the parasites were then centrifuged at 800× g for 10 min. The supernatant was discarded and 1 mL fresh medium was added to each tube. The final suspension was prepared by mixing 25 μL of the parasite suspension in each tube with 100 μL of 0.4% trypan blue in phosphate-buffered saline (PBS). The 50% inhibitory concentration (IC50) was employed as a parameter for biological activity. The IC50 is the concentration of compounds that cuts the number of parasites to half that in the negative control (growth medium + DMSO + parasites). Lastly, the 50% inhibitory concentration (IC50) was calculated.

The target of experiment [2] is T1, triosephosphate isomerase (TPI) (Giardia intestinalis, UniProt P36186).
T1 construct: His-tag (TEV-cleavable) (cleaved yes); made in house
T1 sequence (P36186 whole entry): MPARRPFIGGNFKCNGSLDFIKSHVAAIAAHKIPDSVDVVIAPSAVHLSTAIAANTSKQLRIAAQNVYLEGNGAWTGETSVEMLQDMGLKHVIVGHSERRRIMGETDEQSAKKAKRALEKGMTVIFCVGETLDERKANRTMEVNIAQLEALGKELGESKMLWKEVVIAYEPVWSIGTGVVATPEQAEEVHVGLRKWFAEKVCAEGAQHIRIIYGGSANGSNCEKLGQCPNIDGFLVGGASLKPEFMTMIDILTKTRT
Description: Inactivation of recombinant TPI enzyme with compounds. The class given is biochemical. To be noted: for Loss (reduction) of TPI enzyme activity: 500 µM compound, 2 h at 37 °C. How it is done:
The TPI from G. lamblia was expressed and purified. […] When the culture reached A600 = 0.8, it was induced using 0.4 mM IPTG and incubated overnight at 30 °C with shaking at 180 rpm. After the bacteria were collected by centrifugation (10,000× g, 15 min) and suspended in 40 mL of lysis buffer, pH 8.0 (50 mM Tris, 50 mM NaCl, 5 mM β-mercaptoethanol, and 1 mM phenylmethylsulfonyl fluoride). The bacterial suspension was disrupted by sonication and centrifuged at 9000× g for 1 h at 4 °C. Protein purification was performed by immobilized metal affinity chromatography (IMAC) using a Profinity Ni^2+ charged resin (Bio-Rad) previously reported by Enriquez-Flores et al.. The His-tag sequence was removed from the TIM by incubation with TEVP at a molar ratio of 30:1 (TPI/TEVP) at room temperature for 17 h in digestion buffer, pH 8.0 (50 mM Tris, 0.5 mM ethylene diamine tetraacetic acid (EDTA), and 1 mM dithiothreitol). The enzyme concentration was spectrophotometrically determined at 280 nm, and the enzyme was used immediately.
Enzyme activity of TPI was determined spectrophotometrically as described by monitoring the conversion of glyceraldehyde-3-phosphate (GAP) to dihydroxyacetone phosphate (DHAP). […] The standard reaction mixture contained 1 mM GAP, 0.2 mM NADH, and 0.9 units/mL of α-GDH in TE buffer (100 mM triethanolamine, 10 mM EDTA, pH 7.4). The reaction was initiated by adding 5 ng/mL of TPI to the reaction mixture.
To determine the inactivation of the TPI enzyme from G. lamblia, we performed inactivation assays of the enzyme in the presence of the synthesized compounds. The compounds’ stock solutions were freshly prepared using 100% dimethyl sulfoxide (DMSO) as the solvent at 25 mM. […] After the incubation period, the enzymatic activity was measured by withdrawing an aliquot of each experimental condition, as described above. The results were expressed in terms of the percentage of activity versus the compound’s concentration.

`COc1c(C)cnc(C[S+]([O-])c2nc3ccccc3[nH]2)c1C` (centres unmarked) [H-BZM2, 2-[(4-methoxy-3,5-dimethylpyridin-2-yl)methanesulfinyl]-1H-benzimidazole]: the IC50 in experiment [1] was 36 µM. Also, in experiment [2], the IC50 came out at 37 µM and the “Loss (reduction) of TPI enzyme activity” value worked out at 100%.

`Cc1c(OCC(F)(F)F)ccnc1C[S+]([O-])c1nc2ccccc2[nH]1` (centres unmarked) [Lansoprazole, 2-{[3-methyl-4-(2,2,2-trifluoroethoxy)pyridin-2-yl]methanesulfinyl}-1H-benzimidazole, reference compound] registered an IC50 in experiment [1] of 45 µM. For the same compound, in experiment [2], the IC50 turned out to be 66 µM and the “Loss (reduction) of TPI enzyme activity” value is 100%.

As for `O=[N+]([O-])c1ccc2nc([S+]([O-])Cc3ccccn3)[nH]c2c1` (centres unmarked) [O2N-BZM7, 5-nitro-2-[(pyridin-2-yl)methanesulfinyl]-1H-benzimidazole], half-maximal inhibition in experiment [1] (IC50) required 14 µM. In experiment [2], the “Enhancement of TPI inactivation (IC50) with respect to BHO2” value is reported as 5.3 fold, the IC50 was 12 µM and the “Loss (reduction) of TPI enzyme activity” value is 100%.

The compound `Cc1c(OCC(F)(F)F)ccnc1C[S+]([O-])c1nc2ccc([N+](=O)[O-])cc2[nH]1` (centres unmarked) [O2N-BZM9, 2-{[3-methyl-4-(2,2,2-trifluoroethoxy)pyridin-2-yl]methanesulfinyl}-5-nitro-1H-benzimidazole] returned an IC50 in experiment [1] of 17 µM. In addition, in experiment [2], the “Enhancement of TPI inactivation (IC50) with respect to BHO2” value was 3.2 fold, the IC50 was found to be 20 µM and the “Loss (reduction) of TPI enzyme activity” value was 100%.

Usually IC50 stands for the concentration that inhibits the measured activity by half.
